Article PMC6383948, “Evaluation of a class of isatinoids identified from a high-throughput screen of human kinase inhibitors as anti-Sleeping Sickness agents” (PLoS Neglected Tropical Diseases, 2019)
Converted amounts (≈) assume the structure as drawn. Like-named read-outs stand apart in the source and are kept apart here.

Tests used:
T. b. brucei = T. b. brucei growth inhibition EC50 assay (resazurin, 72 h); format: cell-based, Trypanosoma brucei brucei Lister 427; settings: for EC50: Trypanosoma brucei
Description: Mid-log phase growth T. b. brucei was diluted to a working cell density of 2,750 cells/mL and 90 μL/well dispensed into 96-well flat-bottom transparent assay plates (Nunc). Ten μL/well from intermediate plates were added. The final top concentration of compounds was 40 μM in 0.4% DMSO per well.
Assay plates were incubated for 72 h at 37°C and 5% CO2. Four hours prior to the end of the incubation, 20 μL of a 440 μM resazurin solution in prewarmed HMI-9 was added to each well and incubated for another 4 h. Fluorescence was then measured in an Infinite F200 plate reader (Tecan) at 550 nm (excitation filter) and 590 nm (emission filter). A 4-parameter equation was employed to fit the dose-response curves and determine of EC50 using the SigmaPlot 13.0 software. Assays were performed in duplicate at least twice, to achieve a minimal n = 3 per dose response.
Bloodstream Trypanosoma brucei brucei Lister 427 was cultured in Hirumi’s modified Iscove’s medium (HMI-9), supplemented with 10% heat-inactivated FBS, at 37 °C and 5% CO2 in T-25 vented flask (Corning®).
For dose-response experiments, compound plates were prepared for each analogue by serial 3-fold dilutions in 100% DMSO. Five concentration points (mammalian cytotoxicity) or ten concentration points (parasite growth inhibition), were made in 96-well transparent Nunclon plates. Pentamidine is routinely included in compound plates as internal quality control, and plates are stored sealed at -20 °C for no more than four weeks.

[1] = Human plasma protein binding (equilibrium dialysis); format: in vitro ADME; settings: pH 7.4, read-out: PPB (converted)
Description: PPB is determined using equilibrium dialysis (RED device) to separate free from bound compound. The amount of compound in plasma (10 µM initial concentration) and in dialysis buffer (pH 7.4 phosphate buffer) is measured by LC-MS/MS after equilibration at 37 °C in a dialysis chamber. The fraction unbound (fu) is reported.

Rat hepatocyte CLint = format: in vitro ADME; settings: rat hepatocytes
Description: In vitro intrinsic clearance determined from rat hepatocytes using a standard approach. Following incubation and preparation, the samples are analyzed using LC/MS/MS.

MRC5-SV2 cell line = assay: Cytotoxicity assay in MRC5 (resazurin, 48 h); format: cell-based, human; settings: MRC5 toxicity
Description: For dose-response experiments, compound plates were prepared for each analogue by serial 3-fold dilutions in 100% DMSO. Five concentration points (mammalian cytotoxicity) or ten concentration points (parasite growth inhibition), were made in 96-well transparent Nunclon plates. Pentamidine is routinely included in compound plates as internal quality control, and plates are stored sealed at -20 °C for no more than four weeks. Intermediate plates were made as described, adding 95 μL of DMEM complete media to 5 μL of compound per well setting a 5% DMSO amount. Log-phase MRC5 cells were removed from a T-75 TC flask using TrypLE® Express (Thermo®) and dispersed by gentle pipetting. Cell density was adjusted to working concentration in prewarmed DMEM medium: 25,000 cells in 90 μL of culture were plated in 96-well transparent Nunclon plates and let to settle for 24 h at 37 °C and 5% CO2. After settling incubation, 10 μL of fresh made intermediate plate were added per well: final maximal concentration for compounds was 50 μM in 0.5% DMSO per well. […] Fluorescence was read in an Infinite F200 plate reader (Tecan®) at 550 nm (excitation filter) and 590 nm (emission filter). A 4-parameter equation was used to fit the dose-response curves and determination of EC50 by SigmaPlot ® 13.0 software. Assays were performed in duplicate at least twice for positive compounds, to achieve a minimal n=3 per dose response.

T. cruzi = assay: β-D-Galactosidase transgenic T. cruzi assay (amastigote-infected L6 cells); format: cell-based, T. cruzi Tulahuen C4 strain; settings: Trypanosoma cruzi, 96 h, read-out: T. cruzi pEC50 (converted)
Description: The T. cruzi Tulahuen C4 strain, expressing the β-galactosidase gene (LacZ) and L6 rat skeletal muscle cells, used as host cells, were cultured in RPMI-1640 supplemented with 10% iFBS, 2 mM L-glutamine, 100 U/mL penicillin, and 100 μg/mL streptomycin at 37 °C and 5% CO2.
A Thermo Scientific Multidrop Combi dispenser (MTX Lab Systems, Vienna, VA) was used to dispense 90 μL of T. cruzi amastigote–infected L6 cell culture (4×10^3 infected L6 cells per well) into 96-well Corning assay plates (Corning Inc., Corning, NY) already containing 10 μL of the compounds to be screened and controls. The plates were incubated at 37 °C for 96 h. Then, 30 μL of 100 μM CPRG and 0.1% NP40 diluted in PBS were added to each well, and the plates were incubated for 4 h at 37 °C in the dark. Absorbance at 585 nm was measured in a Vmax kinetic microplate reader ([…]). Compound activities were normalized using the in-plate negative (benznidazole at 10 μg/mL) and positive (0.2% DMSO) growth controls.

[2] = Aqueous pH 7.4 solubility; format: physicochemical; settings: pH 7.4 phosphate buffer, 25 °C, 20-24 h, read-out: Aq. Solubility
Description: Compounds are dried down from 10 mM DMSO solutions using centrifugal evaporation technique. Phosphate buffer (0.1 M pH 7.4) added and StirStix inserted in the glass vials, shaking is then performed at a constant temperature of 25 °C for 20-24 h. This step is followed by double centrifugation with a tip wash in between, to ensure that no residues of the dried compound are interfering. The solutions are diluted before analysis and quantification using LC/MS/MS is performed.

[3] = Human liver microsomal CLint; format: in vitro ADME; settings: for microsomal CLint: human, liver microsomes, read-out: HLM Clint
Description: In vitro intrinsic clearance determined from human liver microsomes using a standard approach. Following incubation and preparation, the samples are analyzed using LC/MS/MS.

L. donovani = assay: EC50 in L. donovani (infected THP-1 macrophages, luciferase); format: cell-based, Leishmania donovani MHOM/ET/67/HU3; settings: Leishmania donovani, 72 h, read-out: L. donovani pEC50 (converted)
Description: Leishmania donovani MHOM/ET/67/HU3 cells with the luciferase gene integrated into the parasite genome[1] were grown at 28 °C in RPMI 1640-modified medium (Invitrogen) supplemented with 20% FBS with […] of hygromycin B.
The Human myelomonocytic cell line THP-1 was grown at 37 °C and 5% CO2 in RPMI-1640 supplemented with 10% iFBS, 2 mM […], 100 U/mL penicillin and […] streptomycin. 3 x 10^4 THP-1 cells per well in 96-well plates were differentiated to macrophages with 20 ng/mL of PMA treatment for 48 h followed by 24 h of culture in fresh medium.
Macrophage-differentiated THP-1 cells were infected at a macrophage/parasite ratio of 1/10 with stationary L. donovani promastigotes for 24 h at 35 °C and 5% CO2, and extracellular parasites were removed by washing with PBS. Infected cell cultures were then incubated with different compounds concentrations at 37 °C for 72 h. Luminescence was measured using the Promega kit luciferase assay system (Promega, Madison, WI). Assays were performed in duplicate at least twice, to achieve a minimal n=3 per dose response.

[4] = 72 h, resazurin, error within ±0.20 (Table 2) or ±0.08 (Table 3) log units, read-out: T.b.b. pEC50 (converted)
[5] = aqueous buffer, thermodynamic from solid

CN(C)S(=O)(=O)c1ccc(N/N=C2\C(=O)Nc3ccccc32)cc1 [NEU-2118, (Z)-N,N-Dimethyl-4-(2-(2-oxoindolin-3-ylidene)hydrazinyl)benzenesulfonamide]
EC50 (T. b. brucei; [4]): 1580 nM
fraction unbound at 10 µM [1]: 0.01
hepatocyte CLint (Rat hepatocyte CLint): 146 µL/min/1e6 cells
MRC5 pTC50 (MRC5-SV2 cell line): <4.3
EC50 (T. cruzi): > 10 µM
solubility [2, 5]: < 1 µM
microsomal CLint [3]: 38.2 µL/min/mg
EC50 (L. donovani): > 10 µM

CNS(=O)(=O)c1ccc(N/N=C2\C(=O)Nc3ccccc32)cc1 [NEU-2124, (Z)-N-Methyl-4-(2-(2-oxoindolin-3-ylidene)hydrazinyl)benzenesulfonamide]
EC50 (T. b. brucei; [4]): 5010 nM
fraction unbound at 10 µM [1]: 0.02
hepatocyte CLint (Rat hepatocyte CLint): 36.4 µL/min/1e6 cells
MRC5 pTC50 (MRC5-SV2 cell line): <4.3
EC50 (T. cruzi): > 10 µM
solubility [2, 5]: < 39 µM
solubility [2]: > 10 µM
microsomal CLint [3]: 20.3 µL/min/mg
EC50 (L. donovani): > 10 µM

CNS(=O)(=O)c1ccc(N/N=C2\C(=O)Nc3cccc(C=C(C)C)c32)cc1 [NEU-4391, (Z)-N-Methyl-4-(2-(4-(2-methylprop-1-en-1-yl)-2-oxoindolin-3-ylidene)hydrazinyl)benzenesulfonamide]
activity against T. brucei (T. b. brucei): sub-micromolar activity
EC50 (T. b. brucei; [4]): 158 nM
EC50 (T. b. brucei; T. brucei, read-out: EC50): 84 nM
fraction unbound at 10 µM [1]: < 0.04
hepatocyte CLint (Rat hepatocyte CLint): 103 µL/min/1e6 cells
MRC5 pTC50 (MRC5-SV2 cell line): <4.3
EC50 (T. cruzi): 2.24 µM
solubility [2]: 4 µM (≈ 1.54 µg/mL)
HLM Clint ([3]; human liver microsomes): 8.63 µL/min/mg
microsomal CLint [3]: 8.6 µL/min/mg
EC50 (L. donovani): > 5.01 µM
